≈ marks a conversion by molar mass, not a printed value.
System: S. aureus
Assay: Minimum inhibitory concentrations (MICs) for S. aureus of exemplary compounds (Table 2)
Type: cell-based
Conditions: Staphylococcus aureus, minimum inhibitory concentrations for S. aureus; read-out: MICs
In short: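 Growth of S. aureus in media with or without compound, by broth microdilution in microtiter trays following NCCLS M7-A5 guidelines. Values are MICs in μg/mL.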

SMILES | MIC [µg/mL]
CC(=O)NC[C@H]1CN(c2ccc(-c3ccc(CNCc4cnn[nH]4)nc3)c(F)c2)C(=O)O1 [Compound 4277, N-{3-[3-Fluoro-4-(6-{[(3H-[1,2,3]triazol-4-ylmethyl)-amino]-methyl}-pyridin-3-yl)-phenyl]-2-oxo-oxazolidin-5-(S)-ylmethyl}-acetamide] | 4 (≈ 9.1 µM)
CC(=O)NC[C@H]1CN(c2ccc(-c3ccc(CNCc4nnn[nH]4)cc3)c(F)c2)C(=O)O1 [Compound 4282, N-[3-(2-Fluoro-4′-{[(1H-tetrazol-5-ylmethyl)-amino]-methyl}-biphenyl-4-yl)-2-oxo-oxazolidin-5-(S)-ylmethyl]-acetamide] | 16 (≈ 36.4 µM)
CC(=O)NC[C@H]1CN(c2ccc(-c3ccc(CN/C(=N\O)c4ccncc4)cc3)c(F)c2)C(=O)O1 [Compound 4285, N-[3-(2-Fluoro-4′-{[(N-hydroxy-pyridine-4-carboximidoyl)-amino]-methyl}-biphenyl-4-yl)-2-oxo-oxazolidin-5-(S)-ylmethyl]-acetamide] | 8 (≈ 16.8 µM)
CC(=O)NC[C@H]1CN(c2ccc(-c3ccc(CNC(=O)C4CCC(=O)N4)cc3)c(F)c2)C(=O)O1 (stereo partly drawn) [Compound 4289, 5-Oxo-pyrrolidine-2-carboxylic acid {4′-[5-(S)-(acetylamino-methyl)-2-oxo-oxazolidin-3-yl]-2′-fluoro-biphenyl-4-ylmethyl}-amide] | 8 (≈ 17.1 µM)
CC(=O)NC[C@H]1CN(c2ccc(-c3ccc(CNC(=O)C4CN(C(=O)OC(C)(C)C)C4)cc3)c(F)c2)C(=O)O1 [Compound 4290, 3-({4′-[5-(S)-(Acetylamino-methyl)-2-oxo-oxazolidin-3-yl]-2′-fluoro-biphenyl-4-ylmethyl}-carbamoyl)-azetidine-1-carboxylic acid tert-butyl ester] | 16 (≈ 29.6 µM)
CC(=O)NC[C@H]1CN(c2ccc(-c3ccc(CNC(=O)C4CNC4)cc3)c(F)c2)C(=O)O1 [Compound 4291, Azetidine-3-carboxylic acid {4′-[5-(S)-(acetylamino-methyl)-2-oxo-oxazolidin-3-yl]-2′-fluoro-biphenyl-4-ylmethyl}-amide] | 8 (≈ 18.2 µM)
CC(=O)NC[C@H]1CN(c2ccc(-c3ccc(CNC(=O)[C@H](N)Cc4cnc[nH]4)cc3)c(F)c2)C(=O)O1 [Compound 4292, N-{4′-[5-(S)-(Acetylamino-methyl)-2-oxo-oxazolidin-3-yl]-2′-fluoro-biphenyl-4-ylmethyl}-2-(R)-amino-3-(3H-imidazol-4-yl)-propionamide] | 16 (≈ 32.4 µM)
CC(=O)NC[C@H]1CN(c2ccc(-c3ccc(CNC(C(N)=O)c4cccnc4)cc3)c(F)c2)C(=O)O1 (stereo partly drawn) [Compound 4293, 2-({4′-[5-(S)-(Acetylamino-methyl)-2-oxo-oxazolidin-3-yl]-2′-fluoro-biphenyl-4-ylmethyl}-amino)-2-pyridin-3-yl-acetamide] | 4 (≈ 8.14 µM)
CC(=O)NC[C@H]1CN(c2ccc(-c3ccc(CNC(=O)C(N)c4cccnc4)cc3)c(F)c2)C(=O)O1 (stereo partly drawn) [Compound 4294, N-{4′-[5-(S)-(Acetylamino-methyl)-2-oxo-oxazolidin-3-yl]-2′-fluoro-biphenyl-4-ylmethyl}-2-amino-2-pyridin-3-yl-acetamide] | 4 (≈ 8.14 µM)
CC(=O)NC[C@H]1CN(c2ccc(-c3ccc(CNC(=O)C4CCN4C(=O)OC(C)(C)C)cc3)c(F)c2)C(=O)O1 (stereo partly drawn) [Compound 4295, 2-({4′-[5-(S)-(Acetylamino-methyl)-2-oxo-oxazolidin-3-yl]-2′-fluoro-biphenyl-4-ylmethyl}-carbamoyl)-azetidine-1-carboxylic acid tert-butyl ester] | 8 (≈ 14.8 µM)
CC(=O)NC[C@H]1CN(c2ccc(-c3ccc(CNCC4CCN(C(=O)OC(C)(C)C)CC4)cc3)c(F)c2)C(=O)O1 [Compound 4298, 4-[({4′-[5-(S)-(Acetylamino-methyl)-2-oxo-oxazolidin-3-yl]-2′-fluoro-biphenyl-4-ylmethyl}-amino)-methyl]-piperidine-1-carboxylic acid tert-butylester] | 8 (≈ 14.4 µM)

Molecules with a lower MIC, results first:

MIC [µg/mL] | SMILES
0.25 (≈ 0.552 µM) | CC(=O)NC[C@H]1CN(c2ccc(-c3ccc(CNCc4cnnn4C)cc3)c(F)c2)C(=O)O1 [Compound 4272, N-[3-(2-Fluoro-4′-{[(3-methyl-3H-[1,2,3]triazol-4-ylmethyl)-amino]-methyl}-biphenyl-4-yl)-2-oxo-oxazolidin-5-(S)-ylmethyl]-acetamide]
2 (≈ 4.13 µM) | CC(=O)NC[C@H]1CN(c2ccc(-c3ccc(CNCC(CF)n4ccnn4)cc3)c(F)c2)C(=O)O1 (stereo partly drawn) [Compound 4274, N-(3-{2-Fluoro-4′-[(3-fluoro-2-[1,2,3]triazol-1-yl-propylamino)-methyl]-biphenyl-4-yl}-2-oxo-oxazolidin-5-(S)-ylmethyl)-acetamide]
0.25 (≈ 0.552 µM) | CC(=O)NC[C@H]1CN(c2ccc(-c3ccc(CN(C)Cc4cnn[nH]4)cc3)c(F)c2)C(=O)O1 [Compound 4276, N-[3-(2-Fluoro-4′-{[methyl-(3H-[1,2,3]triazol-4-ylmethyl)-amino]-methyl}-biphenyl-4-yl)-2-oxo-oxazolidin-5-(S)-ylmethyl]-acetamide]
1 (≈ 1.81 µM) | CC(=O)NC[C@H]1CN(c2ccc(-c3ccc(CN(Cc4nnnn4C)C(=O)OC(C)(C)C)cc3)c(F)c2)C(=O)O1 [Compound 4280, {4′-[5-(S)-(Acetylamino-methyl)-2-oxo-oxazolidin-3-yl]-2′-fluorobiphenyl-4-ylmethyl}-(1-methyl-1H-tetrazol-5-ylmethyl)-carbamic acid tert-butyl ester]
2 (≈ 3.61 µM) | CC(=O)NC[C@H]1CN(c2ccc(-c3ccc(CN(Cc4nnn(C)n4)C(=O)OC(C)(C)C)cc3)c(F)c2)C(=O)O1 [Compound 4281, {4′-[5-(S)-(Acetylamino-methyl)-2-oxo-oxazolidin-3-yl]-2′-fluoro-biphenyl-4-ylmethyl}-(2-methyl-2H-tetrazol-5-ylmethyl)-carbamic acid tert-butyl ester]
0.25 (≈ 0.551 µM) | CC(=O)NC[C@H]1CN(c2ccc(-c3ccc(CNCc4nnnn4C)cc3)c(F)c2)C(=O)O1 [Compound 4283, N-[3-(2-Fluoro-4′-{[(1-methyl-1H-tetrazol-5-ylmethyl)-amino]-methyl}-biphenyl-4-yl)-2-oxo-oxazolidin-5-(S)-ylmethyl]-acetamide]
0.25 (≈ 0.551 µM) | CC(=O)NC[C@H]1CN(c2ccc(-c3ccc(CNCc4nnn(C)n4)cc3)c(F)c2)C(=O)O1 [Compound 4284, N-[3-(2-Fluoro-4′-{[(2-methyl-2H-tetrazol-5-ylmethyl)-amino]-methyl}-biphenyl-4-yl)-2-oxo-oxazolidin-5-(S)-ylmethyl]-acetamide]
2 (≈ 3.43 µM) | CC(=O)NC[C@H]1CN(c2ccc(-c3ccc([C@H](O)CN(CCS(C)(=O)=O)Cc4ccccc4)cc3)c(F)c2)C(=O)O1 [Compound 4286, N-[3-(4′-{2-[Benzyl-(2-methanesulfonyl-ethyl)-amino]-1-(S)-hydroxy-ethyl}-2-fluoro-biphenyl-4-yl)-2-oxo-oxazolidin-5-(S)-ylmethyl]-acetamide]
2 (≈ 4.54 µM) | CC(=O)NC[C@H]1CN(c2ccc(-c3ccc(CNC(=O)C4CCN4)cc3)c(F)c2)C(=O)O1 (stereo partly drawn) [Compound 4296, Azetidine-2-carboxylic acid {4′-[5-(S)-(acetylamino-methyl)-2-oxo-oxazolidin-3-yl]-2′-fluoro-biphenyl-4-ylmethyl}-amide]
2 (≈ 3.93 µM) | CC(=O)NC[C@H]1CN(c2ccc(-c3ccc(CNC(=O)[C@H](N)c4ccc(F)cc4)cc3)c(F)c2)C(=O)O1 [Compound 4297, N-{4′-[5-(S)-(Acetylamino-methyl)-2-oxo-oxazolidin-3-yl]-2′-fluoro-biphenyl-4-ylmethyl}-2-(R)-amino-2-(4-fluoro-phenyl)-acetamide]
